The record followed here is ChEMBL document CHEMBL4418493, “N-hydroxyformamide compounds and compositions comprising them for use as BMP1, TLL1 and/or TLL2 inhibitors” (2018).

By IC50 is commonly meant the concentration that gives 50% inhibition. A low value points to higher potency.

Some results are limits rather than exact numbers.

Data set [1] can be described thus: Reduction in PICP levels in human cardiac fibroblasts incubated for 24 to 48 hrs by ELISA. It counts as functional. On the technique in general: ELISA stands for enzyme-linked immunosorbent assay.
A short description of data set [2]: Drug metabolism in heparinized pooled human plasma at pH 7.5 assessed as formation of (S)-2-(2-ethoxy-4-(5-((((R)-2-((R)-1-(N-hydroxyformamido)propyl)heptanamido)methyl) carbamoyl)furan-2-yl)benzamido)succinic acid at 100 to 2000 ng/ml incubated up to 4 or 24 hrs by LC-MS/MS analysis. It counts as ADME, cell-free. Particulars: pH 7.5, 24 h.

On to `CCCCC[C@@H](C(=O)NCNC(=O)c1ccc(-c2ccc(C(=O)N[C@@H](CC(=O)O)C(=O)O)c(OCC)c2)o1)[C@@H](CC)N(C=O)OC(=O)c1cccc(N2CCCC2)c1.N.N`, for which the IC50 in data set [1] was under 3.98 µM. Also, the Drug metabolism entry in data set [2] is “Metabolite_Detected”.
Turning to `CCCCC[C@@H](C(=O)NCNC(=O)c1ccc(-c2ccc(C(=O)N[C@@H](CC(=O)O)C(=O)O)c(OCC)c2)o1)[C@@H](CC)N(C=O)OCOC(=O)C(C)(C)C`, the IC50 in data set [1] is under 3.98 µM. In addition, the Drug metabolism entry in data set [2] is reported as “Metabolite_Detected”.
Take `CCCCC[C@@H](C(=O)NCNC(=O)c1ccc(-c2ccc(C(=O)N[C@@H](CC(=O)O)C(=O)O)c(OCC)c2)o1)[C@@H](CC)N(C=O)OC(=O)c1c(C)cccc1OP(=O)(O)O`: the Drug metabolism result in data set [2] is given as “Metabolite_Detected”.
Turning to `CCCCC[C@@H](C(=O)NCNC(=O)c1ccc(-c2ccc(C(=O)N[C@@H](CC(=O)O)C(=O)O)c(OCC)c2)o1)[C@@H](CC)N(C=O)OC(=O)c1ccc(OC)cc1C(C)C`, the Drug metabolism entry in data set [2] is listed as “Metabolite_Detected”.
Consider `CCCCC[C@@H](C(=O)NCNC(=O)c1ccc(-c2ccc(C(=O)N[C@@H](CC(=O)O)C(=O)O)c(OCC)c2)o1)[C@@H](CC)N(C=O)OC(=O)c1ccc(OC)cc1Br`, for which the Drug metabolism entry in data set [2] was “Metabolite_Detected”.
Regarding `CCCCC[C@@H](C(=O)NCNC(=O)c1ccc(-c2ccc(C(=O)N[C@@H](CC(=O)O)C(=O)O)c(OCC)c2)o1)[C@@H](CC)N(C=O)OC(=O)C(CC)CC`, in data set [1], the IC50 is under 3.98 µM. Besides, in data set [2], the Drug metabolism result is “Metabolite_Detected”.
For `CCCCC[C@@H](C(=O)NCNC(=O)c1ccc(-c2ccc(C(=O)N[C@@H](CC(=O)O)C(=O)O)c(OCC)c2)o1)[C@@H](CC)N(C=O)OC(=O)c1ccc(CN)cc1`, the Drug metabolism result in data set [2] is recorded as “Metabolite_Detected”.
In the case of `CCCCC[C@@H](C(=O)NCNC(=O)c1ccc(-c2ccc(C(=O)N[C@@H](CC(=O)O)C(=O)O)c(OCC)c2)o1)[C@@H](CC)N(C=O)OC(=O)c1ccc(-n2cccc2)cc1.N.N`, the Drug metabolism result in data set [2] is on record as “Metabolite_Detected”.
`CCCCC[C@@H](C(=O)NCNC(=O)c1ccc(-c2ccc(C(=O)N[C@@H](CC(=O)O)C(=O)O)c(OCC)c2)o1)[C@@H](CC)N(C=O)OC(=O)c1ccc(OC)cc1Cl`: the Drug metabolism entry in data set [2] is “Metabolite_Detected”.
`CCCCC[C@@H](C(=O)NCNC(=O)c1ccc(-c2ccc(C(=O)N[C@@H](CC(=O)O)C(=O)O)c(OCC)c2)o1)[C@@H](CC)N(C=O)OC(=O)c1ccc(-n2ccnc2)cc1` showed an IC50 in data set [1] of under 3.98 µM. In data set [2], the Drug metabolism result is reported as “Metabolite_Detected”.
Consider `CCCCC[C@@H](C(=O)NCNC(=O)c1ccc(-c2ccc(C(=O)N[C@@H](CC(=O)O)C(=O)O)c(OCC)c2)o1)[C@@H](CC)N(C=O)OC(=O)Nc1ccccc1`, for which the Drug metabolism result in data set [2] was “Metabolite_Detected”.
As to `CCCCC[C@@H](C(=O)NCNC(=O)c1ccc(-c2ccc(C(=O)N[C@@H](CC(=O)O)C(=O)O)c(OCC)c2)o1)[C@@H](CC)N(C=O)OC(=O)c1ccc(NC)cc1`, the Drug metabolism result in data set [2] was “Metabolite_Detected”.
The same measure, in the same setting: the entry for `CCCCC[C@@H](C(=O)NCNC(=O)c1ccc(-c2ccc(C(=O)N[C@@H](CC(=O)O)C(=O)O)c(OCC)c2)o1)[C@@H](CC)N(C=O)OC(=O)c1cccc(N)c1` is “Metabolite_Detected”.
On the same count and under the same terms, the entry for `CCCCC[C@@H](C(=O)NCNC(=O)c1ccc(-c2ccc(C(=O)N[C@@H](CC(=O)O)C(=O)O)c(OCC)c2)o1)[C@@H](CC)N(C=O)OC(=O)c1ccc([N+](=O)[O-])cc1C` is “Metabolite_Detected”.
Regarding `CCCCC[C@@H](C(=O)NCNC(=O)c1ccc(-c2ccc(C(=O)N[C@@H](CC(=O)O)C(=O)O)c(OCC)c2)o1)[C@@H](CC)N(C=O)OC(=O)c1ccc(CN2CCOCC2)cc1C`, the IC50 in data set [1] is under 3.98 µM. Besides, the Drug metabolism result in data set [2] is reported as “Metabolite_Detected”.
On to `CCCCC[C@@H](C(=O)NCNC(=O)c1ccc(-c2ccc(C(=O)N[C@@H](CC(=O)O)C(=O)O)c(OCC)c2)o1)[C@@H](CC)N(C=O)OC(=O)c1ccc([N+](=O)[O-])cc1`, for which, in data set [1], the half-inhibitory concentration (IC50) is under 3.98 µM. Further, in data set [2], the Drug metabolism result is “Metabolite_Detected”.
For the compound `CCCCC[C@@H](C(=O)NCNC(=O)c1ccc(-c2ccc(C(=O)N[C@@H](CC(=O)O)C(=O)Oc3ccccc3)c(OCC)c2)o1)[C@@H](CC)N(O)C=O`, in data set [2], the Drug metabolism result is reported as “Metabolite_Detected”.
For the compound `CCCCC[C@@H](C(=O)NCNC(=O)c1ccc(-c2ccc(C(=O)N[C@@H](CC(=O)O)C(=O)O)c(OCC)c2)o1)[C@@H](CC)N(C=O)OC(=O)C1CCNCC1.O=C(O)C(F)(F)F`, the IC50 in data set [1] is under 3.98 µM. Further, the Drug metabolism result in data set [2] was “Metabolite_Detected”.
Take `CCCCC[C@@H](C(=O)NCNC(=O)c1ccc(-c2ccc(C(=O)N[C@@H](CC(=O)O)C(=O)O)c(OCC)c2)o1)[C@@H](CC)N(C=O)OC(=O)c1ccc(OC)c(OC)c1`: in data set [1], the IC50 was under 3.98 µM. Also, the Drug metabolism entry in data set [2] is given as “Metabolite_Detected”.
Consider `CCCCC[C@@H](C(=O)NCNC(=O)c1ccc(-c2ccc(C(=O)N[C@@H](CC(=O)O)C(=O)O)c(OCC)c2)o1)[C@@H](CC)N(C=O)OC(=O)c1ccc(N)cc1`, for which the Drug metabolism result in data set [2] is given as “Metabolite_Detected”.
Consider `CCCCC[C@@H](C(=O)NCNC(=O)c1ccc(-c2ccc(C(=O)N[C@@H](CC(=O)O)C(=O)O)c(OCC)c2)o1)[C@@H](CC)N(C=O)OC(=O)c1c(C)cccc1F`, for which the IC50 in data set [1] is under 3.98 µM. Further, in data set [2], the Drug metabolism result is “Metabolite_Detected”.
The corresponding values for `CCCCC[C@@H](C(=O)NCNC(=O)c1ccc(-c2ccc(C(=O)N[C@@H](CC(=O)O)C(=O)O)c(OCC)c2)o1)[C@@H](CC)N(C=O)OC(=O)c1ccc(N(C)S(C)(=O)=O)cc1` are under 3.98 µM and “Metabolite_Detected”.
Take `CCCCC[C@@H](C(=O)NCNC(=O)c1ccc(-c2ccc(C(=O)N[C@@H](CC(=O)O)C(=O)O)c(OCC)c2)o1)[C@@H](CC)N(C=O)OC(=O)c1cccc(N(C)C)c1`: the Drug metabolism entry in data set [2] is reported as “Metabolite_Detected”.
On to `CCCCC[C@@H](C(=O)NCNC(=O)c1ccc(-c2ccc(C(=O)N[C@@H](CC(=O)O)C(=O)O)c(OCC)c2)o1)[C@@H](CC)N(C=O)OC(=O)c1ccc(C(F)(F)F)cc1`, for which, in data set [1], the IC50 is under 3.98 µM. For the same compound, in data set [2], the Drug metabolism result is on record as “Metabolite_Detected”.
The like results for `CCCCC[C@@H](C(=O)NCNC(=O)c1ccc(-c2ccc(C(=O)N[C@@H](CC(=O)O)C(=O)O)c(OCC)c2)o1)[C@@H](CC)N(C=O)OC(=O)c1ccc(CN2CCOCC2)cc1` were, in that order, under 3.98 µM and “Metabolite_Detected”.
The corresponding values for `CCCCC[C@@H](C(=O)NCNC(=O)c1ccc(-c2ccc(C(=O)N[C@@H](CC(=O)O)C(=O)O)c(OCC)c2)o1)[C@@H](CC)N(C=O)OC(=O)c1ccc(F)cc1C(C)C` are under 3.98 µM and “Metabolite_Detected”.
In the case of `CCCCC[C@@H](C(=O)NCNC(=O)c1ccc(-c2ccc(C(=O)N[C@@H](CC(=O)O)C(=O)O)c(OCC)c2)o1)[C@@H](CC)N(C=O)OC(=O)c1ccc(OC)cc1C.N.N`, the Drug metabolism entry in data set [2] is “Metabolite_Detected”.
The same measure, in the same setting: the entry for `CCCCC[C@@H](C(=O)NCNC(=O)c1ccc(-c2ccc(C(=O)N[C@@H](CC(=O)O)C(=O)OCc3oc(=O)oc3C)c(OCC)c2)o1)[C@@H](CC)N(O)C=O` is “Metabolite_Detected”.
For the compound `CCCCC[C@@H](C(=O)NCNC(=O)c1ccc(-c2ccc(C(=O)N[C@@H](CC(=O)O)C(=O)O)c(OCC)c2)o1)[C@@H](CC)N(C=O)OC(=O)c1ccc2c(c1)OCCO2.N.N`, the IC50 in data set [1] is under 3.98 µM. Besides, the Drug metabolism result in data set [2] is on record as “Metabolite_Detected”.
The compound `CCCCC[C@@H](C(=O)NCNC(=O)c1ccc(-c2ccc(C(=O)N[C@@H](CC(=O)O)C(=O)O)c(OCC)c2)o1)[C@@H](CC)N(C=O)OC(=O)c1ccc(OC)cc1` gave an IC50 in data set [1] of under 3.98 µM. In data set [2], the Drug metabolism entry was “Metabolite_Detected”.
The like results for `CCCCC[C@@H](C(=O)NCNC(=O)c1ccc(-c2ccc(C(=O)N[C@@H](CC(=O)O)C(=O)OCOC(=O)C(C)C)c(OCC)c2)o1)[C@@H](CC)N(O)C=O` were, in that order, under 3.98 µM and “Metabolite_Detected”.
The corresponding values for `CCCCC[C@@H](C(=O)NCNC(=O)c1ccc(-c2ccc(C(=O)N[C@@H](CC(=O)O)C(=O)O)c(OCC)c2)o1)[C@@H](CC)N(C=O)OC(=O)c1ccc(-n2cccn2)cc1` are under 3.98 µM and “Metabolite_Detected”.
In data set [1], `CCCCC[C@@H](C(=O)NCNC(=O)c1ccc(-c2ccc(C(=O)N[C@@H](CC(=O)O)C(=O)O)c(OCC)c2)o1)[C@@H](CC)N(C=O)OC(=O)c1ccc(OCCOCCO)cc1` gave an IC50 of under 3.98 µM. In addition, the Drug metabolism result in data set [2] is “Metabolite_Detected”.
Regarding `CCCCC[C@@H](C(=O)NCNC(=O)c1ccc(-c2ccc(C(=O)N[C@@H](CC(=O)O)C(=O)O)c(OCC)c2)o1)[C@@H](CC)N(C=O)OC(=O)c1ccc2c(c1)N(C)CCO2.N.N`, the half-inhibitory concentration (IC50) in data set [1] was under 3.98 µM. In addition, the Drug metabolism entry in data set [2] is “Metabolite_Detected”.
The corresponding values for `CCCCC[C@@H](C(=O)NCNC(=O)c1ccc(-c2ccc(C(=O)N[C@@H](CC(=O)O)C(=O)O)c(OCC)c2)o1)[C@@H](CC)N(C=O)OC(=O)NC(C)C` are under 3.98 µM and “Metabolite_Detected”.
The like results for `CCCCC[C@@H](C(=O)NCNC(=O)c1ccc(-c2ccc(C(=O)N[C@@H](CC(=O)O)C(=O)O)c(OCC)c2)o1)[C@@H](CC)N(C=O)OC(=O)c1ccc(F)cc1C` were, in that order, under 3.98 µM and “Metabolite_Detected”.
The like results for `CCCCC[C@@H](C(=O)NCNC(=O)c1ccc(-c2ccc(C(=O)N[C@@H](CC(=O)O)C(=O)O)c(OCC)c2)o1)[C@@H](CC)N(C=O)OC(=O)c1ccc(N2CCCC2=O)cc1.N.N` were, in that order, under 3.98 µM and “Metabolite_Detected”.
Turning to `CCCCC[C@@H](C(=O)NCNC(=O)c1ccc(-c2ccc(C(=O)N[C@@H](CC(=O)O)C(=O)O)c(OCC)c2)o1)[C@@H](CC)N(C=O)OC(=O)c1cccc(NC)c1`, in data set [2], the Drug metabolism result was “Metabolite_Detected”.
